In one assay the test system is MCF-7/6 cells. As to the kind of experiment: Sulforhodamine B (SRB) test, MCF-7/6. Type of assay: cell-based, human. As for the experimental part: The SRB assay is used to evaluate growth effects on cells, and measures the total protein content. In this test, 5,000 cells are seeded in a cup of a 96-well plate. Upon a 24 h-attachment period, cells are treated with a certain amount of the test molecule (dissolved in DMSO). After a pre-chosen incubation time, cells are fixed with 50 μL of 50% trichloroacetic acid (2° C., 1 h). Afterward, the plate is rinsed five times with tap water, and air dried overnight.
Next, proteins are stained with 75 μL of a 0.4% solution of SRB in AcOH (30 min). Unbound SRB is subsequently removed by washing with a 1% solution of glacial AcOH, whereupon the plate is air dried. Then, bound SRB is redissolved in 100 μL of a 10 mmol·L^−1 tris(hydroxymethyl)aminomethane (Tris) buffer (pH=10.5), after which optical density is determined at 490 nm with a spectrophotometer.
Besides, also an SRB assay was performed. This test is based on the ability of the dye sulforhodamine B (SRB) to bind electrostatically on basic amino acid residues of protein in trichloroacetic acid-fixed cells. Results obtained in the SRB assay are linearly proportional to the amount of cellular protein and thus to the cell number.

Another assay has as its system FaDu cells. As to the kind of experiment: MTT test, FaDu. It is filed as cell-based, human. The method, then: An MTT test provides an indication of cell viability, proliferation and activity through determination of the mitochondrial conversion of 3-(4,5-dimethylthiazol-2-yl)-2,5-diphenyltetrazolium bromide (MTT), a yellow salt, into formazan, a salt that precipitates under the form of blue crystals.
In concreto, 5,000 cells are seeded in a cup of a 96 well-plate, treated with the desired amount of the test substance, and incubated for a chosen period of time. Next, 40 μL of a filtered (0.2 μm) 5 mg·mL^−1 solution of MTT in PBS is added to the cup. After 2 h of incubation at 37° C. in the dark, all liquid is removed. The obtained formazan salts are dissolved in 200 μL of DMSO, whereupon optical density is measured at 490 nm.
In order to verify whether the antiproliferative effects of compound 49, witnessed in BLM and MCF-7/6 cells at high concentrations, were cell specific, additional SRB and MTT assays on a further five cell lines (HCT8-E11, TR146, FaDu, 3T3-L1 and CT5.3) were conducted (FIG. 8). The results for MCF-7/6 cells were added to facilitate comparison.
The CT5.3 cell line consists of human myofibroblasts which were isolated from a colon tumor (Van Hoorde et al., 1999). 3T3-L1 cells are murine fibroblasts, originating from embryo's of Swiss mice (Todaro and Green, 1963). HCT8-E11, FaDu and TR146 are human epithelial cancer cell lines. […]
On the technique in general: Tetrazolium dyes change colour on reduction, which living cells bring about.

The subject of another assay is BLM cells. As to the kind of experiment: Matrigel invasion assay. Type of assay: cell-based. The conditions noted are these: for Number of invasive BLM-cells found at the basolateral side of the filter: 24 h, samples 1 and 2. From the text:
An interesting method to determine the invasive capacity of cells and the anti-invasive potential of different substances is the matrigel invastion assay. Matrigel can be considered to be a basal membrane and is obtained from mice EHS sarcomas (tumors having an abundant expression of extracellular matrix proteins). The primary component of a matrigel is laminin, further also including collagen IV, heparan, sulphate proteoglycans and growth factors. It is also important that matrix degrading enzymes and inhibitors are present.
At room temperature, matrigel polymerizes into a matrix which mimicks a basal membrane of breast cells. The behavior of cells towards a matrigel highly resembles the in vivo situation and therefore this test is acknowledged to be an appropriate approach to the study migration and invasion, and the role of ECM receptors and matrix degrading enzymes in these processes.
In particular for this example, test cells were placed on a matrigel layer in serum-free medium. Subsequently, said cells were allowed to invade into the matrigel layer upon which they move through a filter, and attach to the bottom of said filter. The migration of the cells is stimulated by the presence of conditioned medium, at the other side of the filter, which act as a chemoattractant for the cells.
50 μl matrigel (+/−3 mg/ml serum-free DMEM) was applied in the apical compartment (upper chamber) of 24-well plate inserts having a pore size of 8 μm. After 1 h of polymerization (37° C.) 50.000 BLM cells (in 150 μl serum-free DMEM) were seeded and incubated with varying concentrations of compound 49 (0-100 μM). In the basolateral compartment (lower chamber), 700 μl conditioned medium, containing the same concentration of compound 49 as used in the apical compartment was applied as a chemo-attractant for the cells. The plates were incubated for 24 h at 37° C. and the matrigel and cells at the apical side were removed using wetted cotton swabs (PBSD-). The filters were washed twice on both sides with PBSD- and subsequently incubated for 10 min in ice-cold methanol to fix the cells. To quantify the number of migrated cells, the filters were incubated for 15 min with DAPI and subsequently washed 4×5 min with PBSD-. The filters were then mounted on coverslips and the number of migrated cells was determined for each concentration of compound 49 using a fluorescence microscope.

Where “and” joins values, the source holds several entries; their conditions need not be identical. Equal values may be shown once.

We go through one compound from patent US9290427B2, “Anti-invasive compounds” (Universiteit Gent, priority 2012, dated 2016).

As for `COc1cc(C(=O)/C=C/c2ccc(F)cc2)cc(OC)c1OC` [Compound 49, (2E)-3-(4-Fluorophenyl)-1-(3,4,5-trimethoxyphenyl)propenone], in the assay on MCF-7/6 cells (1 μmol·L−1, FIG. 6), the number of cells result is given as “smaller but still significant reduction”. Besides, the “change in total protein content” value in the assay with MCF-7/6 cells (10 μmol·L−1, 24 h, decreasing trend, not significant) is listed as −10%. The “total protein content relative to solvent control” value in the assay with MCF-7/6 cells (100 and 10 μmol·L−1, FIG. 6 (72 and 144 h), p<0.01) is reported as “significant reduction”. Further, the “reduction in total protein content” value in the assay with MCF-7/6 cells (elevated concentrations 10-100 μmol·L−1, summary) is on record as roughly 50%. In addition, the mitochondrial activity result in the assay with FaDu cells (1 μmol·L−1, 24 h) is reported as “the same trend, but without significance”. In the assay with FaDu cells (10 μmol·L−1, 24 h), the “reduction in mitochondrial activity” value amounted to 30%. Further, the “reduction of the number of invasive cells” value with BLM cells (0.1 μM) is recorded as 80%; in the assay with BLM cells (1 μM), 67%; in the assay with BLM cells (10 μM) it was 93%; in the assay on BLM cells (100 μM), 98%. Further, the “Number of invasive BLM-cells found at the basolateral side of the filter” value is 282 and 160 in the assay on BLM cells (1 μM); 57 and 33 with BLM cells (10 μM).
